Reference: ChEMBL document CHEMBL4130388, “Recent advances of pyrazole-containing derivatives as anti-tubercular agents” (Eur J Med Chem, 2017)
Values after ≈ are worked out from the molar mass of the structure shown.

How the values were obtained:
[1] = system: Mycobacterium tuberculosis; assay: Antitubercular activity against Mycobacterium tuberculosis H37Rv; format: functional
[2] = system: Mycobacterium tuberculosis; assay: Antitubercular activity against Mycobacterium tuberculosis spec.210; format: functional
[3] = system: Mycobacterium tuberculosis; assay: Antitubercular activity against Mycobacterium tuberculosis spec.192; format: functional
[4] = biological target: T1, Pantothenate synthetase (Mycobacterium tuberculosis, UniProt P9WIL5); assay: Inhibition of Mycobacterium tuberculosis pantothenate synthetase
T1 sequence (P9WIL5 whole entry): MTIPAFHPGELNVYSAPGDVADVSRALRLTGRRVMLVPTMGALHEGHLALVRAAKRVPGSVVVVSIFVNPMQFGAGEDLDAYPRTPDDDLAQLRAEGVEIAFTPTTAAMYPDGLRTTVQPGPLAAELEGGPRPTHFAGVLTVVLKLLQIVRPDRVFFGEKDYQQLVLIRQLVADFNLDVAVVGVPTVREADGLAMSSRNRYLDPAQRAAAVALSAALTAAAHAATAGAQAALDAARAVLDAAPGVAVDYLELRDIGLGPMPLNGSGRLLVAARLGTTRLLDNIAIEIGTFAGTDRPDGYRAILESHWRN

[5] = system: Mycobacterium tuberculosis; assay: Antitubercular activity against Mycobacterium tuberculosis H37Rv by Lowensteine-Jensen method; format: functional
[6] = system: Mycobacterium tuberculosis; assay: Antitubercular activity against Mycobacterium tuberculosis; format: functional
[7] = system: Mycobacterium tuberculosis; assay: Growth inhibition of Mycobacterium tuberculosis H37Rv at 62.5 ug/ml by broth dilution method relative to control; format: functional; settings: read-out: GI
[8] = system: Mycobacterium tuberculosis; assay: Potency index, ratio of pyrazinamide MIC to compound MIC for Mycobacterium tuberculosis; format: functional
[9] = system: HepG2; assay: Cytotoxicity against human HepG2 cells; format: cell-based
[10] = system: Mycobacterium tuberculosis; assay: Antitubercular activity against Mycobacterium tuberculosis H37Rv by broth dilution method; format: functional

**Q.** What does the source list for `COc1ccc(-n2cc(Cn3ncc4c3CCN(C(=O)Nc3ccccc3)C4)nn2)cc1`?
**A.** MIC [1]: 24.7 µM; MIC [2]: 24.7 µM (≈ 10.6 µg/mL); MIC [3]: 24.7 µM (≈ 10.6 µg/mL); IC50 [4]: 1010 nM

**Q.** `O=C(NCCCn1ncc2ccc([N+](=O)[O-])cc21)N1C(=O)C(Cl)C1c1ccc(Br)cc1` (configuration not stated) was tested. Which MIC [5] did it give?
**A.** 6.25 to 50 µg/mL (≈ 12.3 to 98.7 µM)

**Q.** How did the MIC [5] turn out when `Cc1cccc(C2C(Cl)C(=O)N2C(=O)NCCCn2ncc3ccc([N+](=O)[O-])cc32)c1` (configuration not stated) was run?
**A.** 6.25 to 50 µg/mL (≈ 14.1 to 113 µM)

**Q.** Which results are given for `Cc1ccc(-n2cc(Cn3ncc4c3CCN(C(=O)Nc3ccccc3)C4)nn2)cc1`?
**A.** MIC [1]: 24.7 to 200 µM; MIC [2]: 24.7 to 200 µM (≈ 10.2 to 82.7 µg/mL); MIC [3]: 24.7 to 200 µM (≈ 10.2 to 82.7 µg/mL)

**Q.** Which results are given for `O=C(Nc1ccccc1)N1CCc2c(cnn2Cc2cn(-c3ccccc3I)nn2)C1`?
**A.** MIC [1]: 24.7 to 200 µM; MIC [2]: 24.7 to 200 µM (≈ 13 to 105 µg/mL); MIC [3]: 24.7 to 200 µM (≈ 13 to 105 µg/mL)

**Q.** With `O=C(Nc1ccccc1)N1CCc2c(cnn2Cc2cn(-c3ccc(OC(F)(F)F)cc3)nn2)C1` as the compound, how does the MIC [1] read?
**A.** 24.7 to 200 µM

**Q.** What about the MIC [2] of the same compound?
**A.** 24.7 to 200 µM (≈ 12 to 96.7 µg/mL)

**Q.** What about the MIC [3] of the same compound?
**A.** 24.7 to 200 µM (≈ 12 to 96.7 µg/mL)

**Q.** For `Cc1ccc(C2C(Cl)C(=O)N2C(=O)NCCCn2ncc3ccc([N+](=O)[O-])cc32)cc1` (configuration not stated), which MIC [5] is on record?
**A.** 6.25 to 50 µg/mL (≈ 14.1 to 113 µM)

**Q.** `O=C(Nc1ccccc1)N1CCc2c(cnn2Cc2cn(-c3ccc(Cl)c(Cl)c3)nn2)C1` was tested. Which MIC [1] did it give?
**A.** 24.7 to 200 µM

**Q.** What about the MIC [2] of the same compound?
**A.** 24.7 to 200 µM (≈ 11.6 to 93.7 µg/mL)

**Q.** What about the MIC [3] of the same compound?
**A.** 24.7 to 200 µM (≈ 11.6 to 93.7 µg/mL)

**Q.** With `O=C(Nc1ccccc1)N1CCc2c(cnn2Cc2cn(-c3ccc(F)cc3)nn2)C1` as the compound, how does the MIC [1] read?
**A.** 24.7 to 200 µM

**Q.** And the MIC [2]?
**A.** 24.7 to 200 µM (≈ 10.3 to 83.5 µg/mL)

**Q.** What about the MIC [3] of the same compound?
**A.** 24.7 to 200 µM (≈ 10.3 to 83.5 µg/mL)

**Q.** Which MIC [5] does the source give for `O=C(NCCCn1ncc2ccc([N+](=O)[O-])cc21)N1C(=O)C(Cl)C1c1ccc(O)cc1` (configuration not stated) here?
**A.** 6.25 to 50 µg/mL (≈ 14.1 to 113 µM)

**Q.** How did the MIC [5] turn out when `O=C(NCCCn1ncc2ccc([N+](=O)[O-])cc21)N1C(=O)C(Cl)C1c1ccc(Cl)cc1` (configuration not stated) was run?
**A.** 6.25 µg/mL (≈ 13.5 µM)

**Q.** Which MIC [1] does the source give for `COC(=O)C1=C(C)NC(C)=C(C(=O)OC)C1c1cn(-c2ccccc2)nc1-c1ccc([N+](=O)[O-])cc1` here?
**A.** 0.02 µg/mL

**Q.** With `NC(=O)c1cnccn1` [PYRAZINAMIDE] as the compound, how does the MIC [5] read?
**A.** 0.2 to 4 µg/mL (≈ 1.62 to 32.5 µM)

**Q.** And the MIC [1]?
**A.** 50 µg/mL

**Q.** And the MIC [6]?
**A.** 100 µg/mL (≈ 812 µM)

**Q.** How did the MIC [1] turn out when `COc1ccc(-n2cc(Cn3ncc4c3CCN(C(=O)Nc3ccccc3)C4)nn2)cc1OC` was run?
**A.** 24.7 to 200 µM

**Q.** And the MIC [2]?
**A.** 24.7 to 200 µM (≈ 11.4 to 91.9 µg/mL)

**Q.** And the MIC [3]?
**A.** 24.7 to 200 µM (≈ 11.4 to 91.9 µg/mL)

**Q.** How did the MIC [5] turn out when `COc1ccc(C2C(Cl)C(=O)N2C(=O)NCCCn2ncc3ccc([N+](=O)[O-])cc32)cc1` (configuration not stated) was run?
**A.** 6.25 to 50 µg/mL (≈ 13.7 to 109 µM)

**Q.** `Cc1nn(-c2ccccc2)c2c1C(c1cccc([N+](=O)[O-])c1)c1c(nc[nH]c1=O)O2` (configuration not stated) was tested. Which inhibition of growth at 62.5 µg/mL [7] did it give?
**A.** 98%

**Q.** `Fc1ccc(-c2nnc(-c3n[nH]cc3-c3ccc(Cl)cc3)o2)cc1` was tested. Which MIC [6] did it give?
**A.** 25 µg/mL (≈ 73.4 µM)

**Q.** And the Ratio [8]?
**A.** 4

**Q.** `O=C(NCCCn1ncc2ccc([N+](=O)[O-])cc21)N1C(=O)C(Cl)C1c1ccccc1` (configuration not stated) was tested. Which MIC [5] did it give?
**A.** 6.25 to 50 µg/mL (≈ 14.6 to 117 µM)

**Q.** How did the MIC [1] turn out when `O=C(Nc1ccccc1)N1CCc2c(cnn2Cc2cn(-c3cccc(Cl)c3)nn2)C1` was run?
**A.** 24.7 to 200 µM

**Q.** And the MIC [2]?
**A.** 24.7 to 200 µM (≈ 10.7 to 86.8 µg/mL)

**Q.** And the MIC [3]?
**A.** 24.7 to 200 µM (≈ 10.7 to 86.8 µg/mL)

**Q.** What does the source list for `CC1=NN(C(=O)c2cc(-c3ccc(Cl)cc3)n[nH]2)C(=O)/C1=N\Nc1ccc(F)cc1`?
**A.** MIC [1]: 0.35 µg/mL; IC50 [9]: > 500000 nM

**Q.** What does the source list for `O=C(Nc1ccccc1)N1CCc2c(cnn2Cc2cn(-c3ccc(I)cc3)nn2)C1`?
**A.** MIC [1]: 24.7 to 200 µM; MIC [2]: 24.7 to 200 µM (≈ 13 to 105 µg/mL); MIC [3]: 24.7 to 200 µM (≈ 13 to 105 µg/mL)

**Q.** For `CCOC(=O)C1=C(C)NC(=O)NC1c1cn(-c2ccccc2)nc1-c1ccc([N+](=O)[O-])cc1` (configuration not stated), which MIC [10] is on record?
**A.** 0.02 µg/mL (≈ 0.0447 µM)

**Q.** Which MIC [1] does the source give for `O=C(Nc1ccccc1)N1CCc2c(cnn2Cc2cn(-c3ccc(Br)cc3)nn2)C1` here?
**A.** 24.7 to 200 µM

**Q.** What about the MIC [2] of the same compound?
**A.** 24.7 to 200 µM (≈ 11.8 to 95.7 µg/mL)

**Q.** What about the MIC [3] of the same compound?
**A.** 24.7 to 200 µM (≈ 11.8 to 95.7 µg/mL)

**Q.** How did the MIC [5] turn out when `O=C(NCCCn1ncc2ccc([N+](=O)[O-])cc21)N1C(=O)C(Cl)C1c1cccc(Br)c1` (configuration not stated) was run?
**A.** 6.25 to 50 µg/mL (≈ 12.3 to 98.7 µM)

**Q.** Which results are given for `O=C(Nc1ccccc1)N1CCc2c(cnn2Cc2cn(-c3ccccc3Br)nn2)C1`?
**A.** MIC [1]: 24.7 to 200 µM; MIC [2]: 24.7 to 200 µM (≈ 11.8 to 95.7 µg/mL); MIC [3]: 24.7 to 200 µM (≈ 11.8 to 95.7 µg/mL)

**Q.** `O=C(Nc1ccccc1)N1CCc2c(cnn2Cc2cn(-c3ccc(Cl)cc3Cl)nn2)C1` was tested. Which MIC [1] did it give?
**A.** 24.7 to 200 µM

**Q.** What about the MIC [2] of the same compound?
**A.** 24.7 to 200 µM (≈ 11.6 to 93.7 µg/mL)

**Q.** What about the MIC [3] of the same compound?
**A.** 24.7 to 200 µM (≈ 11.6 to 93.7 µg/mL)

**Q.** Which MIC [5] does the source give for `COc1cccc(C2C(Cl)C(=O)N2C(=O)NCCCn2ncc3ccc([N+](=O)[O-])cc32)c1` (configuration not stated) here?
**A.** 6.25 to 50 µg/mL (≈ 13.7 to 109 µM)

**Q.** For `O=C(NCCCn1ncc2ccc([N+](=O)[O-])cc21)N1C(=O)C(Cl)C1c1ccccc1[N+](=O)[O-]` (configuration not stated), which MIC [5] is on record?
**A.** 6.25 to 50 µg/mL (≈ 13.2 to 106 µM)

**Q.** How did the MIC [1] turn out when `CCc1ccc(-n2cc(Cn3ncc4c3CCN(C(=O)Nc3ccccc3)C4)nn2)cc1` was run?
**A.** 24.7 to 200 µM

**Q.** And the MIC [2]?
**A.** 24.7 to 200 µM (≈ 10.6 to 85.5 µg/mL)

**Q.** And the MIC [3]?
**A.** 24.7 to 200 µM (≈ 10.6 to 85.5 µg/mL)

**Q.** How did the MIC [5] turn out when `CO[C@H]1/C=C/O[C@@]2(C)Oc3c(C)c(O)c4c(O)c(c(/C=N/N5CCN(C)CC5)c(O)c4c3C2=O)NC(=O)/C(C)=C\C=C\[C@H](C)[C@H](O)[C@@H](C)[C@@H](O)[C@@H](C)[C@H](OC(C)=O)[C@@H]1C` [RIFAMPIN] was run?
**A.** 0.2 to 4 µg/mL (≈ 0.243 to 4.86 µM)

**Q.** Which MIC [5] does the source give for `O=C(NCCCn1ncc2ccc([N+](=O)[O-])cc21)N1C(=O)C(Cl)C1c1ccccc1O` (configuration not stated) here?
**A.** 6.25 to 50 µg/mL (≈ 14.1 to 113 µM)
